Test results published in PubChem BioAssay (NCI).
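At the GI50, growth is halved. The concentration for full growth arrest is given as TGI.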

Experiments:
Experiment in all cases: inhibition of tumour cell growth, NCI panel, 384-well format
PC-3 prostate = tested on: PC-3 prostate
SF-268 CNS = tested on: SF-268 CNS
SNB-19 CNS = tested on: SNB-19 CNS
IGROV1 ovarian = tested on: IGROV1 ovarian
NCI-H460 NSCLC = tested on: NCI-H460 NSCLC
SR leukemia = tested on: SR leukemia
UACC-62 melanoma = tested on: UACC-62 melanoma
BT-549 breast = tested on: BT-549 breast
COLO 205 colon = tested on: COLO 205 colon
786-0 renal = tested on: 786-0 renal
NCI/ADR-RES ovarian = tested on: NCI/ADR-RES ovarian
MDA-MB-468 breast = tested on: MDA-MB-468 breast
CCRF-CEM leukemia = tested on: CCRF-CEM leukemia
HCC-2998 colon = tested on: HCC-2998 colon
SF-295 CNS = tested on: SF-295 CNS
A549 NSCLC = tested on: A549 NSCLC
HL-60(TB) leukemia = tested on: HL-60(TB) leukemia
MDA-MB-231 breast = tested on: MDA-MB-231 breast
HOP-62 NSCLC = tested on: HOP-62 NSCLC
OVCAR-4 ovarian = tested on: OVCAR-4 ovarian
T-47D breast = tested on: T-47D breast
U251 glioblastoma = tested on: U251 glioblastoma
SK-MEL-28 melanoma = tested on: SK-MEL-28 melanoma
NCI-H322M lung = tested on: NCI-H322M lung
SF-539 CNS = tested on: SF-539 CNS
HCT-15 colon = tested on: HCT-15 colon
HT29 colon = tested on: HT29 colon
LOX IMVI melanoma = tested on: LOX IMVI melanoma
MDA-MB-435 melanoma = tested on: MDA-MB-435 melanoma
UO-31 renal = tested on: UO-31 renal
SK-OV-3 ovarian = tested on: SK-OV-3 ovarian
MALME-3M melanoma = tested on: MALME-3M melanoma
NCI-H23 lung = tested on: NCI-H23 lung
CAKI-1 renal = tested on: CAKI-1 renal
M14 melanoma = tested on: M14 melanoma
HOP-92 NSCLC = tested on: HOP-92 NSCLC
K-562 leukemia = tested on: K-562 leukemia
NCI-H226 lung = tested on: NCI-H226 lung
SW-620 colon = tested on: SW-620 colon
SK-MEL-5 melanoma = tested on: SK-MEL-5 melanoma
TK-10 renal = tested on: TK-10 renal
HCT-116 colon = tested on: HCT-116 colon
NCI-H522 lung = tested on: NCI-H522 lung
A498 renal = tested on: A498 renal
RXF 393 renal = tested on: RXF 393 renal
MCF7 breast = tested on: MCF7 breast
MOLT-4 leukemia = tested on: MOLT-4 leukemia
SN12C renal = tested on: SN12C renal
DU-145 prostate = tested on: DU-145 prostate
UACC-257 melanoma = tested on: UACC-257 melanoma
KM12 colon = tested on: KM12 colon
OVCAR-5 ovarian = tested on: OVCAR-5 ovarian
ACHN renal = tested on: ACHN renal
SK-MEL-2 melanoma = tested on: SK-MEL-2 melanoma
OVCAR-8 ovarian = tested on: OVCAR-8 ovarian
RPMI-8226 leukemia = tested on: RPMI-8226 leukemia
OVCAR-3 ovarian = tested on: OVCAR-3 ovarian

**Q.** What does the source list for `CN(C)CC[C@H](CSc1ccccc1)Nc1ccc(S(=O)(=O)NC(=O)c2ccc(N3CCN(Cc4ccccc4-c4ccc(Cl)cc4)CC3)cc2)cc1[N+](=O)[O-]`?
**A.** GI50 (PC-3 prostate): 1.78 µM; TGI (PC-3 prostate): 3.48 µM; GI50 (SF-268 CNS): 3.17 µM; TGI (SF-268 CNS): > 100 µM; GI50 (SNB-19 CNS): 3.11 µM; TGI (SNB-19 CNS): > 100 µM; GI50 (IGROV1 ovarian): 1.48 µM; TGI (IGROV1 ovarian): 3.59 µM; GI50 (NCI-H460 NSCLC): 3.65 µM; TGI (NCI-H460 NSCLC): 14.3 µM; GI50 (SR leukemia): 0.223 µM; TGI (SR leukemia): 1.48 µM; GI50 (UACC-62 melanoma): 3.02 µM; TGI (UACC-62 melanoma): 10.5 µM; GI50 (BT-549 breast): 2.23 µM; TGI (BT-549 breast): 6.13 µM; GI50 (COLO 205 colon): 1.68 µM; TGI (COLO 205 colon): 3.12 µM; GI50 ([…]-0 renal): 1.94 µM; TGI (786-0 renal): 4.74 µM; GI50 (NCI/ADR-RES ovarian): > 100 µM; TGI (NCI/ADR-RES ovarian): > 100 µM; GI50 (MDA-MB-468 breast): 1.33 µM; TGI (MDA-MB-468 breast): 3.42 µM; GI50 (CCRF-CEM leukemia): 0.145 µM; TGI (CCRF-CEM leukemia): 0.372 µM; GI50 (HCC-2998 colon): 0.232 µM; TGI (HCC-2998 colon): 0.75 µM; GI50 (SF-295 CNS): 2.46 µM; TGI (SF-295 CNS): 6.83 µM; GI50 (A549 NSCLC): 3.14 µM; TGI (A549 NSCLC): 53.2 µM; GI50 (HL-60(TB) leukemia): 0.0477 µM; TGI (HL-60(TB) leukemia): 0.218 µM; GI50 (MDA-MB-231 breast): 1.04 µM; TGI (MDA-MB-231 breast): 2.39 µM; GI50 (HOP-62 NSCLC): 3.18 µM; TGI (HOP-62 NSCLC): 25.4 µM; GI50 (OVCAR-4 ovarian): 3 µM; TGI (OVCAR-4 ovarian): 9.08 µM; GI50 (T-47D breast): 2.41 µM; TGI (T-47D breast): 9.13 µM; GI50 (U251 glioblastoma): 2.56 µM; TGI (U251 glioblastoma): 7.35 µM; GI50 (SK-MEL-28 melanoma): 2.77 µM; TGI (SK-MEL-28 melanoma): 6.76 µM; GI50 (NCI-H322M lung): 2.34 µM; TGI (NCI-H322M lung): 5.7 µM; GI50 (SF-539 CNS): 5.46 µM; TGI (SF-539 CNS): 100 µM; GI50 (HCT-15 colon): 1.68 µM; TGI (HCT-15 colon): 3.17 µM; GI50 (HT29 colon): 2.9 µM; TGI (HT29 colon): 13.3 µM; GI50 (LOX IMVI melanoma): 2.36 µM; TGI (LOX IMVI melanoma): 4.73 µM; GI50 (MDA-MB-435 melanoma): 2.33 µM; TGI (MDA-MB-435 melanoma): 6.07 µM; GI50 (UO-31 renal): 1.79 µM; TGI (UO-31 renal): 3.58 µM; GI50 (SK-OV-3 ovarian): 2.31 µM; TGI (SK-OV-3 ovarian): 6.3 µM; GI50 (MALME-3M melanoma): 3.15 µM; TGI (MALME-3M melanoma): 11.2 µM; GI50 (NCI-H23 lung): 2.37 µM; TGI (NCI-H23 lung): 7.46 µM; GI50 (CAKI-1 renal): 1.83 µM; TGI (CAKI-1 renal): 3.73 µM; GI50 (M14 melanoma): 2.79 µM; TGI (M14 melanoma): 8.57 µM; GI50 (HOP-92 NSCLC): 0.177 µM; TGI (HOP-92 NSCLC): 1.05 µM; GI50 (K-562 leukemia): 2.17 µM; TGI (K-562 leukemia): 5.21 µM; GI50 (NCI-H226 lung): 1.66 µM; TGI (NCI-H226 lung): 3.86 µM; GI50 (SW-620 colon): 3.52 µM; TGI (SW-620 colon): 12.2 µM; GI50 (SK-MEL-5 melanoma): 1.3 µM; TGI (SK-MEL-5 melanoma): 2.64 µM; GI50 (TK-10 renal): 1.98 µM; TGI (TK-10 renal): 4.79 µM; GI50 (HCT-116 colon): 1.95 µM; TGI (HCT-116 colon): 4.07 µM; GI50 (NCI-H522 lung): 4.36 µM; TGI (NCI-H522 lung): 60.7 µM; GI50 (A498 renal): 1.42 µM; TGI (A498 renal): 2.98 µM; GI50 (RXF 393 renal): 0.258 µM; TGI (RXF 393 renal): 1.4 µM; GI50 (MCF7 breast): 1.87 µM; TGI (MCF7 breast): 4.93 µM; GI50 (MOLT-4 leukemia): 0.119 µM; TGI (MOLT-4 leukemia): 0.252 µM; GI50 (SN12C renal): 2.26 µM; TGI (SN12C renal): 5.79 µM; GI50 (DU-145 prostate): 4.2 µM; TGI (DU-145 prostate): > 100 µM; GI50 (UACC-257 melanoma): 1.49 µM; TGI (UACC-257 melanoma): 3.71 µM; GI50 (KM12 colon): 2.05 µM; TGI (KM12 colon): 6.17 µM; GI50 (OVCAR-5 ovarian): 2.01 µM; TGI (OVCAR-5 ovarian): 4.19 µM; GI50 (ACHN renal): 5.2 µM; TGI (ACHN renal): 62.8 µM; GI50 (SK-MEL-2 melanoma): 1.64 µM; TGI (SK-MEL-2 melanoma): 3.64 µM; GI50 (OVCAR-8 ovarian): 2.29 µM; TGI (OVCAR-8 ovarian): 6.24 µM; GI50 (RPMI-8226 leukemia): 0.239 µM; TGI (RPMI-8226 leukemia): 0.444 µM; GI50 (OVCAR-3 ovarian): 1.63 µM; TGI (OVCAR-3 ovarian): 3.37 µM
